Data on one compound can be found in patent US20230022803A1, “NOVEL CRYSTALLINE FORM OF GPR40 AGONIST” (ILDONG Pharmaceutical Co., Ltd., priority 2021, published 2023).

The target in one series is GPR40 (Homo sapiens, UniProt O14842). Description: Cell-based aequorin assay (agonistic activity). The following applies: method and reference agonist of U.S. 2020/0223833. As for the experimental part: The agonistic activity of the crystalline form of Compound 1 was measured by using the method described in U.S. Patent Application Publication No. 2020/0223833, which is incorporated herein by reference. The agonistic activity of the crystalline form of Compound 1 was higher than 70% of the activity of the reference agonist used in U.S. Patent Application Publication No. 2020/0223833, which falls within the category of the publication.

The nature of series [1]: Thermal analysis (TGA and DSC). The series is classed as physicochemical. An excerpt:
The crystalline form Compound 1 prepared according to Example 1 was characterized by thermal gravimetric analysis (TGA) and differential scanning calorimetry (DSC). The TGA analysis was made by a TA Q5000 instrument. The DSC analysis was made by a TA Q2000 MDSC instrument. The instrumental parameters used are listed below.
FIGS. 2A and 2B show the results of the TGA and DSC analyses, respectively.

Series [2] in a line: Gravimetric vapor sorption (GVS) analysis. The series is classed as physicochemical. An excerpt:
The GVS analysis was made using an IGA Sorp instrument by Hiden Analytical. The instrumental parameters are listed below.
FIG. 6 illustrates the GVS analysis result.

Series [3] can be described thus: Visual solubility analysis in 13 solvents. Format: physicochemical. Particulars: organic solvent or mixture, thermodynamic from solid, read-out: Solubility (S). As for the experimental part: The solubility of the crystalline form Compound 1 was visually determined in 13 solvents. 5.0±0.2mg of the crystalline form Compound 1 was stirred at 20° C. with increasing volumes of solvents until a clear solution was visually observed.

≈ marks a conversion by molar mass, not a printed value. Where two headings read alike, the source gives them in different places. Where only a bound is given, the exact number is not on record here.

GPR40, sequence (O14842 whole entry, species assumed): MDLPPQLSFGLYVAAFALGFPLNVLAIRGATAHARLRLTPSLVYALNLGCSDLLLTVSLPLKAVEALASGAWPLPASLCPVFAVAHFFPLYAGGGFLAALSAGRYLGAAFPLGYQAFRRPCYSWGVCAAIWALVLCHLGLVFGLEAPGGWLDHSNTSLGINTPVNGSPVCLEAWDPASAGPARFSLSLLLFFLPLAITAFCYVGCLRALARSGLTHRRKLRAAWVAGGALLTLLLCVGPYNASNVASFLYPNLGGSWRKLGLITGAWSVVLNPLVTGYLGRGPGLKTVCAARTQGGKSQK

Consider `CC#C[C@@H](CC(=O)O)c1ccc(O[C@@H]2CCc3c(-c4ccc(O[C@@H]5CCOC5)nc4)ccc(F)c32)cc1` [Crystalline Form Compound 1, (S)-3-(4-(((R)-7-Fluoro-4-(6-(((R)-tetrahydrofuran-3-yl)oxy)pyridin-3-yl)-2,3-dihydro-1H-inden-1-yl)oxy)phenyl)hex-4-ynoic acid], for which the “agonistic activity relative to the activity of the reference agonist” value on GPR40 was “higher than 70%”. The thermal stability result in series [1] (TGA/DSC, heating rate 10° C./min) is given as “relatively high thermal stability”. Besides, in series [1] (from ambient to 130° C.), the TGA weight loss came out at 0.13 % w/w. The “2nd adsorption cycle (0-90% RH), adsorbed water” value in series [2] (GVS isotherm, 25 °C, 0-90% RH) is 0.135 % w/w. The “1st adsorption cycle (50-90% RH), adsorbed water” value in series [2] (GVS isotherm, 25 °C, 50-90% RH) is reported as 0.119 % w/w. In addition, the “1st desorption cycle (90-0% RH), desorbed water” value in series [2] (GVS isotherm, 25 °C, 90-0% RH) is 0.127 % w/w. Further, the hygroscopic behavior result in series [2] (GVS, 25 °C) is reported as “non-hygroscopic”. The weight gain result in series [2] (from dryness to 90% RH during the second adsorption cycle) is on record as “less than 0.2 % w/w”. For the same compound, the solubility is over 100000 µg/mL in series [3] (2-Butanone, 20° C.); 5000 to 6000 µg/mL (≈ 9.97 to 12 mM) in series [3] (2-Propanol, 20° C.); over 100000 µg/mL in series [3] (Acetone, 20° C.); over 100000 µg/mL in series [3] (Acetone/water 90:10, 20° C.); 6000 to 8000 µg/mL (≈ 12 to 16 mM) in series [3] (Acetonitrile, 20° C.); over 100000 µg/mL in series [3] (Dichloromethane, 20° C.). The solubility in series [3] (Ethyl acetate, 20° C.) is 50000 to 100000 µg/mL (≈ 99.7 to 199 mM); in series [3] (Methanol, 20° C.), 6000 to 8000 µg/mL (≈ 12 to 16 mM); in series [3] (Methanol/water 90:10, 20° C.), 1000 to 2000 µg/mL (≈ 1.99 to 3.99 mM); in series [3] (Methyl tert-butyl ether, 20° C.) it was 2000 to 5000 µg/mL (≈ 3.99 to 9.97 mM); in series [3] (Tetrahydrofuran, 20° C.) it was over 100000 µg/mL; in series [3] (Toluene, 20° C.), 10000 to 12000 µg/mL (≈ 19.9 to 23.9 mM). In series [3] (i-Propyl acetate, 20° C.), the solubility lay within 17000 to 25000 µg/mL (≈ 33.9 to 49.8 mM).

By solubility is commonly meant how much of the substance goes into solution per volume.
